Assays:
Test in all cases: Post-emergence efficacy, glasshouse pot test
Assay type in all cases: in vivo
Settings in all cases: 312 h, post-emergence spray, Application Rate 500 g/Ha, evaluated after 13 days, 100=total damage to plant, 0=no damage to plant
Eleusine indica (ELEIN) = tested on: Eleusine indica (ELEIN)
Protocol: (§1) Seeds of a variety of test species were sown in standard soil in pots. After cultivation for 14 days (post-emergence) under controlled conditions in a glasshouse (at 24/16° C., day/night; 14 hours light; 65% humidity), the plants were sprayed with an aqueous spray solution derived from the dissolution of the technical active ingredient formula (I) in a small amount of acetone and a special solvent and emulsifier mixture referred to as IF50 (11.12% Emulsogen EL360 TM+44.44% N-methylpyrrolidone+44.44% Dowanol DPM glycol ether), to create a 50 g/I solution which was then diluted to required concentration using 0.25% or 1% Empicol ESC70 (Sodium lauryl ether sulphate)+1% ammonium sulphate as diluent. The test plants were then grown in a glasshouse under controlled conditions (at 24/16° C., day/night; 14 hours light; 65% humidity) and watered twice daily. After 13 days the test was evaluated (100=total damage to plant; 0=no damage to plant). Ipomoea hederacea (IPOHE), Euphorbia heterophylla (EPHHL), Chenopodium album (CHEAL), Amaranthus palmeri (AMAPA), Lolium perenne (LOLPE), Digitaria sanguinalis (DIGSA), Eleusine indica (ELEIN), Echinochloa crus-galli (ECHCG), Setaria faberi (SETFA)

[1] = tested on: Amaranthus palmeri (AMAPA)
Protocol: as §1

Lolium perenne (LOLPE) = tested on: Lolium perenne (LOLPE)
Protocol: as §1

[2] = tested on: Chenopodium album (CHEAL)
Protocol: as §1

Setaria faberi (SETFA) = tested on: Setaria faberi (SETFA)
Protocol: as §1

[3] = tested on: Digitaria sanguinalis (DIGSA)
Protocol: as §1

[4] = tested on: Euphorbia heterophylla (EPHHL)
Protocol: as §1

[5] = tested on: Ipomoea hederacea (IPOHE)
Protocol: as §1

[6] = tested on: Echinochloa crus-galli (ECHCG)
Protocol: as §1

Compound	pest or weed control at 500 g/ha (Eleusine indica (ELEIN)) [%]	pest or weed control at 500 g/ha [1] [%]	pest or weed control at 500 g/ha (Lolium perenne (LOLPE)) [%]	pest or weed control at 500 g/ha [2] [%]	pest or weed control at 500 g/ha (Setaria faberi (SETFA)) [%]	pest or weed control at 500 g/ha [3] [%]	pest or weed control at 500 g/ha [4] [%]	pest or weed control at 500 g/ha [5] [%]	pest or weed control at 500 g/ha [6] [%]
CN(CC(=O)O)C(=O)C[n+]1ccc(-c2ncns2)cc1 [Compound A6]	20	100	40	90	40	90	90	40	60
CN(CCS(=O)(=O)[O-])C(=O)C[n+]1ccc(-c2ncns2)cc1 [Compound A10]	40	90	20	20	50	40	80	50	30
O=C(O)CS(=O)(=O)C[n+]1ccc(-c2ncns2)cc1 [Compound A19]	30	40	20	50	20	30	30	10	30
O=C(O)CCNC(=O)C[n+]1ccc(-c2ncns2)cc1 [Compound A4, 3-[[2-[4-(1,2,4-thiadiazol-5-yl)pyridin-1-ium-1-yl]acetyl]amino]propanoic Acid Chloride]	100	90	90	90	70	100	90	90	70
O=C(O)CCSC[n+]1ccc(-c2ncns2)cc1 [Compound A15, 3-[[4-(1,2,4-thiadiazol-5-yl)pyridin-1-ium-1-yl]methylsulfanyl]propanoic acid chloride]	90	100	50	90	100	100	40	40	100
COC(=O)CCNC(=O)C[n+]1ccc(-c2ncns2)cc1 [Compound A2, methyl 3-[[-2-[4-(1,2,4-thiadiazol-5-yl)pyridin-1-ium-1-yl]acetyl]amino]propanoate bromide]	30	80	10	90	50	40	40	50	20
CC(NC(=O)C[n+]1ccc(-c2ncns2)cc1)C(=O)O (stereo not drawn) [Compound A7]	100	100	80	90	100	100	100	100	100
O=C(O)CCS(=O)(=O)C[n+]1ccc(-c2ncns2)cc1 [Compound A18, 3-[[4-(1,2,4-thiadiazol-5-yl)pyridin-1-ium-1-yl]methylsulfonyl]propanoic acid 2,2,2-trifluoroacetate]	100	100	40	90	100	100	60	70	90
O=C(C[n+]1ccc(-c2ncns2)cc1)NC1(C(=O)O)CC1 [Compound A16]	40	100	50	90	100	80	90	50	90
O=C(O)CNC(=O)CC[n+]1ccc(-c2ncns2)cc1 [Compound A13]	70	100	40	30	80	70	60	20	50
O=C(CC[n+]1ccc(-c2ncns2)cc1)NCS(=O)(=O)[O-] [Compound A14, [3-[4-(1,2,4-thiadiazol-5-yl)pyridin-1-ium-1-yl]propanoylamino]methanesulfonate]	60	100	10	90	70	100	20	30	70
COC(=O)CN(C)C(=O)C[n+]1ccc(-c2ncns2)cc1 [Compound A1]	10	0	10	10	0	0	10	10	0
O=C(C[n+]1ccc(-c2ncns2)cc1)NCCS(=O)(=O)[O-] [Compound A9, 2-[[2-[4-(1,2,4-thiadiazol-5-yl)pyridin-1-ium-1-yl]acetyl]amino]ethanesulfonate]	50	90	30	70	60	30	90	60	30
COC(=O)C(C)NC(=O)C[n+]1ccc(-c2ncns2)cc1 (stereo not drawn) [Compound A8]	100	100	60	90	100	100	100	100	100
O=C(O)CNC(=O)C[n+]1ccc(-c2ncns2)cc1 [Compound A3, 2-[[2-[4-(1,2,4-thiadiazol-5-yl)pyridin-1-ium-1-yl]acetyl]amino]acetic acid chloride]	100	90	70	90	100	100	100	100	100
CC(C)(NC(=O)C[n+]1ccc(-c2ncns2)cc1)C(=O)O [Compound A17]	60	100	30	50	80	80	70	40	60
COC(=O)CNC(=O)C[n+]1ccc(-c2ncns2)cc1 [Compound A5, methyl 2-[[2-[4-(1,2,4-thiadiazol-5-yl)pyridin-1-ium-1-yl]acetyl]amino]acetate bromide]	100	90	30	90	60	100	80	80	90

Reference: patent US20220142164A1, “HERBICIDAL COMPOUNDS” (SYNGENTA CROP PROTECTION AG, priority 2019, published 2022)
